Data from patent publication US4395552A, “Antimicrobial bis-imidazolo-pyridine compound” (The Purdue Frederick Company, priority 1980, dated 1983).
Counter-ions that a name gives are not always drawn.

Tests used:
Escherichia coli = test: minimum inhibitory concentration, antibacterial spectrum (Table I); type: cell-based; settings: 32 P.P.M.
Experimental: (§1) The compounds listed in Table I below were tested for their antibacterial spectrum by the method of:
(§2) Silverblatt, F. and M. Turck, 1969. Antimicrobial Agents and Chemothreapy; 1968, p. 279-285.
(§3) Wallace, J. F., E. Atlas, D. M. Bear, N. K. Brown, H. Clark and M. Turk, 1971. Antimicrobial Agents and Chemotherapy; 1970, p. 223-266.

Staphylococcus aureus = test: as above; type: cell-based; settings: 32 P.P.M.
Experimental: as §1, §2, §3

Klebsiella pneumonia = test: minimum inhibitory concentration / in vitro spectrum of activity; type: cell-based; settings: Klebsiella pneumoniae, footnote of Table I
Experimental: as §1, §2, §3

Streptococcus pyogenes = test: as above; type: cell-based; settings: footnote of Table I
Experimental: as §1, §2, §3

Diplococcus pneumoniae = test: as above; type: cell-based; settings: Streptococcus pneumoniae, footnote of Table I
Experimental: as §1, §2, §3

Salmonella typhosa = test: as above; type: cell-based; settings: Salmonella enterica, read-out: minimum inhibitory concentration (MIC)
Experimental: as §1, §2, §3

Pseudomonas aeruginosa = test: minimum inhibitory concentration, antibacterial spectrum (Table I); type: cell-based; settings: 32 P.P.M.
Experimental: as §1, §2, §3

[1] = LD50 upon oral administration to mice; settings: mouse, in vivo
Candida albicans = test: minimum inhibitory concentration, antimicrobial spectrum (Table I); type: cell-based; settings: 32 P.P.M.
Experimental: as §1, §2, §3

## N=C(NCCCCCCNC(=N)Nc1nc2cc(Cl)c(S(N)(=O)=O)cc2[nH]1)Nc1nc2cc(Cl)c(S(N)(=O)=O)cc2[nH]1 [Compound 1045, N'-N"-bis-[2-(5'-chloro-6'-sulfamylbenzimidazole)]-2,9-diazadecane diimidamide dihydrochloride]
Escherichia coli
  MIC: 8 µg/mL

## N=C(NCCCCCCCCNC(=N)Nc1nc2ccccc2[nH]1)Nc1nc2ccccc2[nH]1 [Compound 1080, N'-N"-bis-[2-benzimidazole]-2,11-diazadodecane diimidamide dihydrochloride dihydrate]
Escherichia coli
  MIC: 1 µg/mL
Staphylococcus aureus
  MIC: 1 µg/mL

## N=C(NCCCCCNC(=N)Nc1nc2ccc(Cl)cc2[nH]1)Nc1nc2ccc(Cl)cc2[nH]1 [Compound 1075, N'-N"-bis-[2-(6-chlorobenzimidazole)]-2,8,diazanonane diimidamide dihydrochloride hydrate]
Escherichia coli
  MIC: 2 µg/mL
Staphylococcus aureus
  MIC: 2 µg/mL

## N=C(NCCCCCNC(=N)Nc1nc2ccccc2[nH]1)Nc1nc2ccccc2[nH]1 [Compound 1079, N'-N"-bis-[2-benzimidazole]-2,8-diazanonane diimidamide dihydrochloride dihydrate]
Escherichia coli
  MIC: 8 µg/mL
Staphylococcus aureus
  MIC: 8 µg/mL

## N=C(NCCCCCCNC(=N)Nc1nc2ccccc2[nH]1)Nc1nc2ccccc2[nH]1 [Compound 1024, N'-N"-bis-[2-benzimidazole]-2,9-diazadecane diimidamide dihydrochloride]
Klebsiella pneumonia
  MIC: 500 µg/mL
Streptococcus pyogenes
  MIC: 1 µg/mL
Diplococcus pneumoniae
  MIC: 2 µg/mL
Salmonella typhosa
  MIC: 4 µg/mL
Pseudomonas aeruginosa
  MIC: 16 µg/mL
Escherichia coli
  MIC: 4 µg/mL
Staphylococcus aureus
  MIC: 4 µg/mL
[1]
  LD50: 4000 mg/kg

## Cc1ccc2nc(NC(=N)NCCCCCCNC(=N)Nc3nc4ccc(C)cc4[nH]3)[nH]c2c1 [Compound 1081, N'-N"-bis-[2-(6-methyl-benzimidazole)]-2,9-diazadecane diimidamide dihydrochloride dihydrate]
Pseudomonas aeruginosa
  MIC: 8 µg/mL
Escherichia coli
  MIC: 1 µg/mL
Staphylococcus aureus
  MIC: 1 µg/mL
Candida albicans
  MIC: 8 µg/mL

## Cc1ccc2nc(NC(=N)NCCNC(=N)Nc3nc4ccc(C)cc4[nH]3)[nH]c2c1 [Compound 1072, N'-N"-bis-[2-(6-methylbenzimidazole)]-2,5-diazahexane diimidamide dihydrochloride monohydrate]
Pseudomonas aeruginosa
  MIC: 16 µg/mL
Escherichia coli
  MIC: 4 µg/mL
Staphylococcus aureus
  MIC: 16 µg/mL

## N=C(NCCNC(=N)Nc1nc2ccccc2[nH]1)Nc1nc2ccccc2[nH]1 [Compound 1069, N'-N"-bis[2-benzimidazole]-2,5-diazahexane diimidamide dihydrochloride]
Escherichia coli
  MIC: 32 µg/mL

## N=C(NCCNC(=N)Nc1nc2ccc(Cl)cc2[nH]1)Nc1nc2ccc(Cl)cc2[nH]1 [Compound 1105, N'-N"-bis-[2-(6-chlorobenzimidazole)]-2,5-diazahexanediimidamide dihydrochloride sesquihydrate]
Staphylococcus aureus
  MIC: 5 µg/mL

## Cc1ccc2nc(NC(=N)NCCCCCNC(=N)Nc3nc4ccc(C)cc4[nH]3)[nH]c2c1 [Compound 1074, N'-N"-bis-[2-(6-methylbenzimidazole)]-2,8-diazanonane diimidamide dihydrochloride hemipentahydrate]
Pseudomonas aeruginosa
  MIC: 8 µg/mL
Escherichia coli
  MIC: 4 µg/mL
Staphylococcus aureus
  MIC: 8 µg/mL
Candida albicans
  MIC: 16 µg/mL

## N=C(NCCCCCCCNC(=N)Nc1nc2ccccc2[nH]1)Nc1nc2ccccc2[nH]1 [Compound 1046, N'-N"-bis-[2-benzimidazole]-2,10-diazaundecane diimidamide dihydrochloride]
Escherichia coli
  MIC: 8 µg/mL
Staphylococcus aureus
  MIC: 8 µg/mL
Candida albicans
  MIC: 16 µg/mL
